Test results from US6953812B2, “Glucagon antagonists/inverse agonists” (Novo Nordisk, Inc., priority 2000, dated 2005).

What was measured:
human glucagon receptor = biological target: T1, human glucagon receptor (Homo sapiens, UniProt P47871); assay: Glucagon Binding Assay (II); conditions: membranes of BHK cells transfected with human glucagon receptor, 125I-glucagon, SPA; read-out: Glu Bd Assay (II) IC50
T1 construct: expressed in transfected cells; host or cells: BHK (baby hamster kidney) cells, membrane preparation
T1 sequence (P47871 26-477): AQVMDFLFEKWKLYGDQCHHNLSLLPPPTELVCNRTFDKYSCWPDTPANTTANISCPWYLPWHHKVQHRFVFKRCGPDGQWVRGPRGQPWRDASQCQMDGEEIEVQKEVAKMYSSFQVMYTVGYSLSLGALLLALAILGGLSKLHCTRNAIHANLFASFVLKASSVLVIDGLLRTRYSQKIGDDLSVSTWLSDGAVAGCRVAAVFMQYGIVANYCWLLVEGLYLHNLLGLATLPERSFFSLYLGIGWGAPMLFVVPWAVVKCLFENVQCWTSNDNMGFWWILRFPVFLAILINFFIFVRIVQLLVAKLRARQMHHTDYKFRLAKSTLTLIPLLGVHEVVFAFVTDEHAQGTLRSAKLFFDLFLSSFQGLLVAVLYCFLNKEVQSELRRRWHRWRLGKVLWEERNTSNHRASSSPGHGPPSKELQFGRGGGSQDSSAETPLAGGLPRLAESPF
Procedure: Glucagon Binding Assay (II)
BHK (baby hamster kidney cell line) cells are transfected with the human glucagon receptor and a membrane preparation of the cells is prepared.
All steps in the membrane preparation are kept on ice or performed at 4° C. BHK cells are harvested and centrifuged. The pellet is resuspended in homogenisation buffer (25 mM HEPES, pH=7.4, 2.5 mM CaCl2, 1.0 mM MgCl2, 250 mg/L bacitracin, 0.1 mM Pefabloc), homogenised 2×10 sec using Polytron 10-35 homogenizer (Kinematica) and added the same amount of homogenisation buffer as used for resuspension. After centrifugation (15 min at 2000×g) the supernatant is transferred to cold centrifuge tubes and centrifuged for 45 min at 40.000×g. The pellet is resuspended in homogenisation buffer, homogenised 2×10 sec (Polytron) and additional homogenisation buffer is added. The suspension is centrifuged for 45 min at 40.000×g and the pellet is resuspended in resuspension buffer (25 mM HEPES, pH=7.4, 2.5 mM CaCl2, 1.0 mM MgCl2) and homogenised 2×10 sec. (Polytron). […] Stabilisation buffer (25 mM HEPES, pH=7.4, 2.5 mM CaCl2, 1.0 mM MgCl2, 1% bovine serum albumin, 500 mg/L bacitracin, 2.5 M sucrose) is added and the membrane preparation is stored at −80° C.
(§1) The glucagon binding assay is carried out in opti plates (Polystyrene Microplates, Packard). 50 μL assay buffer (25 mM HEPES, pH=7.5, 2.5 mM CaCl2, 1.0 mM MgCl2, 0.003% Tween-20, 0.005% bacitracin, 0.05% sodium azide) and 5 μL glucagon or test compound (in DMSO) are added to each well. […] Finally 50 μL WGA beads containing 1 mg beads are transferred to the well. The opti plates are incubated for 4 hours on a shaker and then settled for 8-48 hours. The opti plates are counted in a Topcounter. Non-specific binding is determined with 500 nM of glucagon.

human GIP receptor = biological target: T2, human GIP receptor (Homo sapiens, UniProt P48546); assay: GIP Binding Assay; conditions: membranes of BHK cells transfected with human GIP receptor, 125I-GIP, SPA; read-out: GIP Bd Assay IC50
T2 construct: expressed in transfected cells; host or cells: BHK (baby hamster kidney) cells, membrane preparation
T2 sequence (P48546 22-466): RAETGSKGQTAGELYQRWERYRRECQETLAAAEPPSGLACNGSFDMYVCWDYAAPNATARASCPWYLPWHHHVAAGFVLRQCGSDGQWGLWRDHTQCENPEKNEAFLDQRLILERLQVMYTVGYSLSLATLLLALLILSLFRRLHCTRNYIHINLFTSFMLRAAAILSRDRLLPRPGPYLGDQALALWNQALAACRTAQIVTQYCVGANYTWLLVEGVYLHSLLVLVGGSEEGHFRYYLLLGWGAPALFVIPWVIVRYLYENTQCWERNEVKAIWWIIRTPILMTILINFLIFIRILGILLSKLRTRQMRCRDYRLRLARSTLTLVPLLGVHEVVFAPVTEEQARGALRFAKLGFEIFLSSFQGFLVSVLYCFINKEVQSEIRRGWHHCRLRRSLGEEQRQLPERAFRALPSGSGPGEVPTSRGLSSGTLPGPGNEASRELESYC
Procedure: BHK (baby hamster kidney cell line) cells are transfected with the human GIP receptor and a membrane preparation of the cells is prepared.
All steps in the membrane preparation are kept on ice or performed at 4° C. BHK cells are harvested and centrifuged. The pellet is resuspended in homogenisation buffer (25 mM) HEPES, pH=7.4, 2.5 mM CaCl2, 1.0 mM MgCl2, 250 mg/L bacitracin, 0.1 mM Pefabloc), homogenised 2×10 sec using Polytron 10-35 homogenizer (Kinematica) and added the same amount of homogenisation buffer as used for resuspension. After centrifugation (15 min at 2000×g) the supernatant is transferred to cold centrifuge tubes and centrifuged for 45 min at 40.000×g. The pellet is resuspended in homogenisation buffer, homogenised 2×10 sec (Polytron) and additional homogenisation buffer is added. The suspension is centrifuged for 45 min at 40.000×g and the pellet is resuspended in resuspension buffer (25 mM HEPES, pH=7.4, 2.5 mM CaCl2, 1.0 mM MgCl2) and homogenised 2×10 sec. (Polytron). […] Stabilisation buffer (25 mM HEPES, pH=7.4, 2.5 mM CaCl2, 1.0 mM MgCl2, 1% bovine serum albumin, 500 mg/L bacitracin, 2.5 M sucrose) is added and the membrane preparation is stored at −80° C.
as §1, with “The GIP” for “The glucagon”, “μL GIP” for “μL glucagon”, “for 3.5” for “for 4”, “a Top-counter.” for “a Topcounter.”, “of GIP.” for “of glucagon.”

SMILES | IC50 (human glucagon receptor) | IC50 (human GIP receptor)
C[C@H](NC(=O)N(Cc1ccc(C(=O)NC[C@@H](O)C(=O)O)cc1)c1ccc(C2CCCCC2)cc1)c1ccc(Cl)cc1 [Example 35, 3-{4-[3-[1(S)-(4-Chlorophenyl)ethyl]-1-(4-cyclohexylphenyl)ureidomethyl]benzoylamino}-2(R)-hydroxypropionic Acid] | 0.04 µM | 0.432 µM
O=C(NC[C@@H](O)C(=O)O)c1ccc(CN(C(=O)NCc2ccccc2-c2ccccc2)c2ccc(C3CCCCC3)cc2)cc1 [Example 36, 3-{4-[3-Biphenyl-2-ylmethyl-1-(4-cyclohexylphenyl)ureidomethyl]benzoylamino}-2(R)-hydroxypropionic acid] | 0.014 µM | 0.284 µM
N#Cc1ccc(NC(=O)N(Cc2ccc(C(=O)NC[C@@H](O)C(=O)O)cc2)c2ccc(C3CCCCC3)cc2)cc1C(F)(F)F [Example 37, (R)-3-{4-[3-(4-Cyano-3-trifluoromethylphenyl)-1-(4-cyclohexylphenyl)ureidomethyl]benzoyl-amino}-2-hydroxypropionic Acid] | 0.019 µM | 0.52 µM
CC(C)(C)c1cccc(NC(=O)N(Cc2ccc(C(=O)NC[C@@H](O)C(=O)O)cc2)c2ccc(C3CCCCC3)cc2)c1 [Example 38, (R)-3-{4-[3-(3-tert-Butylphenyl)-1-(4-cyclohexylphenyl)ureidomethyl]benzoylamino)-2-hydroxypropionic Acid] | 0.033 µM | 0.221 µM
O=C(NC[C@@H](O)C(=O)O)c1ccc(CN(C(=O)Nc2ccc(OC(F)(F)F)c(CO)c2)c2ccc(C3CCCCC3)cc2)cc1 [Example 39, (R)-3-{4-[1-(4-Cyclohexylphenyl)-3-(3-hydroxymethyl-4-trifluoromethoxyphenyl)ureidomethyl]-benzoylamino}-2-hydroxypropionic Acid] | 0.018 µM | 0.357 µM
CC(C)(C)c1ccc(N(Cc2ccc(C(=O)NC[C@@H](O)C(=O)O)cc2)C(=O)Nc2ccc(Cl)c(Cl)c2)cc1 [Example 40, (R)-3-{4-[1-(4-tert-butylphenyl)-3-(3,4-dichlorophenyl)ureidomethyl]benzoylamino}-2-hydroxypropionic acid] | 0.107 µM | 0.8 µM
CC(C)(C)C1CCC(N(Cc2ccc(C(=O)NC[C@@H](O)C(=O)O)cc2)C(=O)Nc2ccc(Cl)c(Cl)c2)CC1 (stereo partly drawn) [Example 41, (R)-3-{4-[1-(4-tert-Butylcyclohexyl)-3-(3,4-dichlorophenyl)ureidomethyl]benzoylamino}-2-hydroxypropionic acid] | 0.133 µM | 1.59 µM
O=C(NC[C@@H](O)C(=O)O)c1ccc(CN(C(=O)Nc2ccc(Cl)c(Cl)c2)c2ccc(C3CCCCC3)cc2)cc1 [Example 42, (R)-3-{4-[1-(4-Cyclohexylphenyl)-3-(3,4-dichlorophenyl)ureidomethyl]benzoylamino}-2-hydroxypropionic acid] | 0.041 µM | 0.34 µM
O=C(NC[C@@H](O)C(=O)O)c1ccc(CN(C(=O)Nc2ccc3c(c2)C(F)(F)OC(F)(F)O3)c2ccc(C3CCCCC3)cc2)cc1 [Example 43, (R)-3-{4-[1-(4-Cyclohexylphenyl)-3-(2,2,4,4-tetrafluoro-4H-benzo[1,3]dioxin-6-yl)ureidomethyl]benzoylamino}-2-hydroxypropionic acid] | 0.017 µM | 0.226 µM
CC(C)(C)c1ccc(N(Cc2ccc(C(=O)NC[C@@H](O)C(=O)O)cc2)C(=O)Nc2ccc3c(c2)C(F)(F)OC(F)(F)O3)cc1 [Example 44, (R)-3-{4-[1-(4-tert-Butylphenyl)-3-(2,2,4,4-tetrafluoro-4H-benzo[1,3]dioxin-6-yl)ureidomethyl]benzoylamino}-2-hydroxypropionic acid] | 0.039 µM | 0.291 µM
CC(C)(C)C1CCC(N(Cc2ccc(C(=O)NC[C@@H](O)C(=O)O)cc2)C(=O)Nc2ccc3c(c2)C(F)(F)OC(F)(F)O3)CC1 (stereo partly drawn) [Example 45, (R)-3-{4-[1-(4-tert-Butylcyclohexyl)-3-(2,2,4,4-tetrafluoro-4H-benzo[1,3]dioxin-6-yl)ureidomethyl]benzoylamino}-2-hydroxypropionic acid] | 0.061 µM | 0.373 µM
CC(C)(C)c1ccc(N(Cc2ccc(C(=O)NC[C@@H](O)C(=O)O)cc2)C(=O)Nc2ccc(F)c(F)c2)cc1 [Example 46, (R)-3-{4-[1-(4-tert-Butylphenyl)-3-(3,4-difluorophenyl)ureidomethyl]benzoylamino}-2-hydroxypropionic acid] | 0.507 µM | 1.17 µM
O=C(NC[C@@H](O)C(=O)O)c1ccc(CN(C(=O)Nc2ccc(F)c(F)c2)c2ccc(C3CCCCC3)cc2)cc1 [Example 47, (R)-3-{4-[1-(4-Cyclohexylphenyl)-3-(3,4-difluorophenyl)ureidomethyl]benzoylamino}-2-hydroxypropionic acid] | 0.064 µM | 0.665 µM
O=C(NC[C@@H](O)C(=O)O)c1ccc(CN(C(=O)Nc2ccc(F)c(F)c2)c2ccc(C3=CCCCC3)cc2)cc1 [Example 48, (R)-3-{4-[1-(4-Cyclohex-1-enylphenyl)-3-(3,4-difluorophenyl)ureidomethyl]benzoylamino}-2-hydroxypropionic acid] | 0.182 µM | > 3 µM
O=C(NC[C@@H](O)C(=O)O)c1ccc(CN(C(=O)Nc2ccc(Cl)c(C(F)(F)F)c2)c2ccc(C3CCCCC3)cc2)cc1 [Example 49, (R)-3-{4-[3-(4-Chloro-3-trifluoromethylphenyl)-1-(4-cyclohexylphenyl)ureidomethyl]benzoylamino}-2-hydroxypropionic acid] | 0.025 µM | 0.16 µM
O=C(NC[C@@H](O)C(=O)O)c1ccc(CN(C(=O)Nc2ccc(F)c([N+](=O)[O-])c2)c2ccc(C3CCCCC3)cc2)cc1 [Example 50, (R)-3-{4-[1-(4-Cyclohexylphenyl)-3-(4-fluoro-3-nitrophenyl)ureidomethyl]benzoylamino}-2-hydroxypropionic acid] | 0.119 µM | > 3 µM
CC(C)c1ccc(NC(=O)N(Cc2ccc(C(=O)NC[C@@H](O)C(=O)O)cc2)c2ccc(C3CCCCC3)cc2)cc1 [Example 51, (R)-3-{4-[1-(4-Cyclohexylphenyl)-3-(4-isopropylphenyl)ureidomethyl]benzoylamino}-2-hydroxypropionic acid] | 0.088 µM | 0.831 µM
O=C(NC[C@@H](O)C(=O)O)c1ccc(CN(C(=O)Nc2ccc(Cl)c(Cl)c2)c2ccc(C3=CCCCC3)cc2)cc1 [Example 52, (R)-3-{4-[1-(4-Cyclohex-1-enylphenyl)-3-(3,4-dichlorophenyl)ureidomethyl]benzoylamino}-2-hydroxypropionic acid] | 0.047 µM | 0.341 µM
